In publication PMC8294059, “Identification and Immune Assessment of T Cell Epitopes in Five Plasmodium falciparum Blood Stage Antigens to Facilitate Vaccine Candidate Selection and Optimization” (Frontiers in Immunology, 2021):
Where a SMILES comes first, the peptide text is derived from it.

Experiments:
Experiment in all cases: biochemical
Format in all cases: binding
[1] = molecular target: HLA-DRB1*1301 (Homo sapiens, UniProt P01903+P01911, A100E/A169T/K41T/L162R/M171V/P40S/Q125H/Q178H/Q39Y/Q99D/R42S/S66N/T262R/W38E/Y61H); conditions: binding inhibition assay; NB = non-binder (no dose-dependent inhibition); read-out: DRB1*1301 IC50
Experimental: (§1) The binding assay conducted by EpiVax yields an indirect measure of peptide-MHC affinity as it utilizes a competition assay format per the methodology described in Steere et al. ([35]). […] Post incubation, the mixtures are moved to a 96-well plate coated with anti-HLA-DR antibody to capture HLA-peptide complexes. Time-resolved fluorescence measurement of the bound labeled reference peptide complex present in each mixture is detected with a europium-linked probe via fluorescent spectrophotometry using a SpectraMax M5 system. HLA binding affinity of each test peptide is expressed as the percent inhibition of reference peptide binding. Percent inhibition values (across the test peptide titration range) are used to calculate the half maximal inhibitory concentration (IC50) of each test peptide. For these studies, test peptides were assessed using a range of final concentrations from 100,000 nM to 100 nM. The panel of commercially-available HLA-DRB1 allele monomers used includes: *0101, *0301, *0401, *0701, *0801, *1101, *1301 and *1501. EpiVax established HLA-DRB1 binding affinity cutoffs were used to rank the IC50 values.
(§2) In vitro HLA binding assays (step 2 of workflow shown in Figure 1 ) were carried out with the synthesized peptides to verify the EpiMatrix outputs and provide a measure of accuracy for comparing in silico-predicted HLA-DRB1 allele binding to laboratory assessments of HLA-DRB1 allele binding. These assessments were conducted using a competition assay format whereby IC50 values were calculated based on the ability of the test peptide to compete with a labeled, high binding affinity reference peptide for HLA-DRB1 molecule binding. Sequences for the high affinity reference peptides and the negative control peptide, known not to bind any of the HLA-DRB1 molecules, are provided in Table S18 .

[2] = molecular target: HLA-DRB1*0801 (Homo sapiens, UniProt P01903+P01911, A100R/A103L/A169T/D86S/F76Y/H45Y/I96F/K41T/L162R/M171V/P40S/Q125H/Q178H/Q39Y/Q99D/R218S/R42G/S66Y/V115G/W38E); conditions: binding inhibition assay; NB = non-binder (no dose-dependent inhibition); read-out: DRB1*0801 IC50
Experimental: as §1, §2

[3] = molecular target: T1, HLA-DRB1*1501 (Homo sapiens, UniProt P01903+P01911); conditions: binding inhibition assay; NB = non-binder (no dose-dependent inhibition); read-out: DRB1*1501 IC50
T1 construct: purchased
Experimental: as §1, §2

[4] = molecular target: HLA-DRB1*0701 (Homo sapiens, UniProt P01903+P01911, A100R/A102G/A103Q/D57E/D86V/E43K/F76Y/K127E/L162R/M171V/P40G/Q125H/Q99D/R33Q/R42Y/R54Q/S133A/S66F/T210M/V115G/Y107V/Y59L/Y89S); conditions: binding inhibition assay; NB = non-binder (no dose-dependent inhibition); read-out: DRB1*0701 IC50
Experimental: as §1, §2

[5] = molecular target: HLA-DRB1*1101 (Homo sapiens, UniProt P01903+P01911, A100R/A169T/A87E/I96F/K41T/L162R/M171V/P40S/Q125H/Q178H/Q39Y/Q99D/R42S/S66Y/T262R/V115G/W38E); conditions: binding inhibition assay; NB = non-binder (no dose-dependent inhibition); read-out: DRB1*1101 IC50
HLA-DRB1*1101, sequence (P01903 26-254 limits assumed, other chains not shown): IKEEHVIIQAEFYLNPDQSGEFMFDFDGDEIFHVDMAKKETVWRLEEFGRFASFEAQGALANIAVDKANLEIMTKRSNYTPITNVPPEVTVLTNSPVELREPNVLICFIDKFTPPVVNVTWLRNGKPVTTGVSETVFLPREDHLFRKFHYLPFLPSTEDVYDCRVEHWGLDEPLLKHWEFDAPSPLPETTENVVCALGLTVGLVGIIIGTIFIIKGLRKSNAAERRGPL
Experimental: as §1, §2

[6] = molecular target: T2, HLA-DRB1*0401 (Homo sapiens, UniProt P01903+P01911, A100K/A169T/F76Y/I96L/K127E/L162R/M171V/N62H/P40V/Q125Y/R42H/S133A/S149N/S66Y/V115G/V209L/W38E); conditions: binding inhibition assay; NB = non-binder (no dose-dependent inhibition); read-out: DRB1*0401 IC50
T2 construct: purchased
Experimental: as §1, §2

[7] = molecular target: T3, HLA-DRB1*0101 (Homo sapiens, UniProt P01903+P01911, A100R/D57E/F55L/F60I/F76Y/I96L/L162R/M171V/P40L/Q125E/R42F/V115G/Y59C); conditions: binding inhibition assay; NB = non-binder (no dose-dependent inhibition); read-out: DRB1*0101 IC50
T3 construct: purchased
Experimental: as §1, §2

Structure (SMILES) | IC50 [1] [µM] | IC50 [2] [µM] | IC50 [3] [µM] | IC50 [4] [µM] | IC50 [5] [µM] | IC50 [6] [µM] | IC50 [7] [µM]
CSCC[C@H](N)C(=O)N[C@@H](CCCNC(=N)N)C(=O)N[C@@H](CCCCN)C(=O)N[C@@H](CC(C)C)C(=O)N[C@@H](Cc1ccc(O)cc1)C(=O)N[C@@H](CS)C(=O)N[C@H](C(=O)N[C@@H](CC(C)C)C(=O)N[C@@H](CC(C)C)C(=O)N[C@@H](CC(C)C)C(=O)N[C@@H](CO)C(=O)N[C@@H](C)C(=O)N[C@@H](Cc1ccccc1)C(=O)N[C@@H](CCC(=O)O)C(=O)N[C@@H](Cc1ccccc1)C(=O)N[C@H](C(=O)N[C@@H](Cc1ccc(O)cc1)C(N)=O)[C@@H](C)O)C(C)C [AMA1_001] (H-MRKLYCVLLLSAFEFTY-NH2) | 1.79 | 17.3 | 0.751 | 0.206 | 0.32 | 1.47 | 0.394
CC[C@H](C)[C@H](NC(=O)[C@H](CC(=O)O)NC(=O)[C@H](CC(C)C)NC(=O)[C@H](CCCCN)NC(=O)[C@H](CC(N)=O)NC(=O)[C@H](CCC(=O)O)NC(C)=O)C(=O)N[C@@H](CC(C)C)C(=O)N[C@@H](CC(N)=O)C(=O)N[C@@H](CC(N)=O)C(=O)N[C@@H](CO)C(=O)N[C@@H](CCCCN)C(=O)N[C@@H](Cc1ccccc1)C(=O)N[C@@H](CC(N)=O)C(=O)N[C@@H](CCCCN)C(=O)N[C@@H](CCCNC(=N)N)C(=O)N[C@@H](Cc1c[nH]c2ccccc12)C(=O)N[C@@H](CCCCN)C(N)=O [EBA175_002] (Ac-ENKLDILNNSKFNKRWK-NH2) | 14.2 |  | 13.9 |  |  | > 100 | 11.9
CC[C@H](C)[C@H](NC(=O)[C@H](Cc1ccccc1)NC(=O)[C@H](Cc1c[nH]cn1)NC(=O)[C@H](CC(=O)O)NC(C)=O)C(=O)N[C@@H](CCC(=O)O)C(=O)N[C@@H](C)C(=O)N[C@@H](CO)C(=O)N[C@@H](CCCCN)C(=O)N[C@@H](CCCCN)C(=O)N[C@@H](CCC(=O)O)C(=O)N[C@@H](CO)C(=O)N[C@@H](CCC(N)=O)C(=O)N[C@@H](CC(C)C)C(=O)N[C@@H](CC(C)C)C(N)=O [EBA175_006] (Ac-DHFIEASKKESQLL-NH2) | 74.6 | 1.76 |  |  | 2.87 | > 100 | 6.63
CC[C@H](C)[C@H](NC(=O)[C@H](CCCCN)NC(=O)CNC(=O)[C@@H](NC(=O)[C@H](CC(C)C)NC(=O)[C@H](CCCCN)NC(=O)[C@H](CCCNC(=N)N)NC(=O)[C@H](CC(N)=O)NC(=O)[C@H](CO)NC(=O)[C@H](CC(C)C)NC(=O)[C@H](CC(=O)O)NC(=O)[C@H](CC(N)=O)NC(=O)[C@H](Cc1c[nH]c2ccccc12)NC(=O)[C@H](Cc1ccc(O)cc1)NC(=O)[C@H](CC(=O)O)NC(=O)[C@@H](NC(=O)CNC(C)=O)[C@@H](C)O)C(C)C)C(=O)N[C@@H](CC(N)=O)C(=O)N[C@H](C(=O)N[C@@H](CC(N)=O)C(N)=O)[C@@H](C)O [EBA175_011] (Ac-GTDYWNDLSNRKLVGKINTN-NH2) | > 100 | > 100 | 54.2 |  | 28.6 | 52.7 | 0.462
CSCC[C@H](NC(=O)[C@@H](NC(=O)[C@H](Cc1c[nH]cn1)NC(=O)[C@H](Cc1ccccc1)NC(=O)CNC(=O)[C@H](Cc1c[nH]cn1)NC(=O)[C@H](CCCCN)NC(C)=O)[C@@H](C)O)C(=O)N[C@@H](CC(N)=O)C(=O)N[C@@H](CC(N)=O)C(=O)N[C@@H](CC(C)C)C(=O)N[C@@H](Cc1c[nH]cn1)C(=O)NCC(=O)N[C@@H](CC(=O)O)C(=O)NCC(=O)N[C@H](C(=O)N[C@@H](CO)C(=O)N[C@@H](CCC(=O)O)C(N)=O)C(C)C [EBA175_016] (Ac-KHGFHTMNNLHGDGVSE-NH2) | > 100 |  | 79 |  | 8.62 | 0.458 | 0.16
CC[C@H](C)[C@H](NC(=O)[C@H](Cc1ccc(O)cc1)NC(=O)[C@@H](NC(=O)[C@H](CO)NC(=O)[C@H](Cc1c[nH]cn1)NC(C)=O)[C@@H](C)O)C(=O)N[C@@H](CCCCN)C(=O)N[C@@H](CO)C(=O)N[C@@H](Cc1ccc(O)cc1)C(=O)N[C@@H](CC(C)C)C(=O)N[C@@H](CC(N)=O)C(=O)N[C@H](C(=O)N[C@@H](CC(N)=O)C(=O)N[C@H](C(=O)N[C@@H](CC(N)=O)C(=O)N[C@@H](CC(=O)O)C(=O)NCC(=O)N[C@@H](CC(C)C)C(=O)N[C@@H](CCCCN)C(=O)N[C@@H](Cc1ccc(O)cc1)C(N)=O)C(C)C)[C@@H](C)O [RH5_003] (Ac-HSTYIKSYLNTNVNDGLKY-NH2) | 20.1 |  | 0.004 | 58.5 | 96.5 | 7.45 | 0.282
CC[C@H](C)[C@H](NC(=O)[C@H](CC(=O)O)NC(=O)[C@@H]1CCCN1C(=O)[C@H](CC(C)C)NC(=O)[C@@H](NC(=O)[C@H](CO)NC(=O)[C@H](CO)NC(=O)[C@H](CC(N)=O)NC(=O)[C@H](Cc1ccc(O)cc1)NC(=O)[C@H](CC(C)C)NC(=O)[C@H](CO)NC(=O)[C@@H]1CCCN1C(=O)[C@@H](NC(=O)[C@H](CC(N)=O)NC(=O)[C@H](CO)NC(=O)[C@H](Cc1c[nH]cn1)NC(=O)[C@H](CC(C)C)NC(=O)[C@H](Cc1c[nH]cn1)NC(=O)[C@H](CO)NC(=O)[C@H](CC(N)=O)NC(=O)[C@H](CCCCN)NC(C)=O)[C@@H](C)CC)[C@@H](C)CC)C(=O)N[C@@H](CC(N)=O)C(=O)N[C@@H](CCCCN)C(=O)N[C@@H](CO)C(N)=O [RIPR_008] (Ac-KNSHLHSNIPSLYNSSILPDINKS-NH2) |  | 9.43 | 0.7 | 65.7 | 92.2 | 48.5 | 0.4
CC[C@H](C)[C@H](NC(=O)[C@H](CC(C)C)NC(=O)[C@H](Cc1c[nH]cn1)NC(=O)[C@H](Cc1ccccc1)NC(=O)[C@H](CCCCN)NC(=O)[C@H](CO)NC(=O)[C@H](CCCCN)NC(C)=O)C(=O)N[C@@H](CO)C(=O)N[C@@H](CCCNC(=N)N)C(=O)N[C@@H](CC(N)=O)C(=O)N[C@@H](CO)C(=O)N[C@@H](CCCNC(=N)N)C(=O)N[C@H](C(=O)N[C@@H](CC(N)=O)C(=O)N[C@@H](CCC(N)=O)C(=O)N[C@@H](Cc1ccc(O)cc1)C(N)=O)[C@@H](C)O [RIPR_009] (Ac-KSKFHLISRNSRTNQY-NH2) | 0.064 | 63.4 | 15.8 |  | 0.075 | 59.1 | 0.441
CC(=O)N[C@@H](CCC(=O)O)C(=O)N[C@@H](CCC(=O)O)C(=O)NCC(=O)N[C@@H](Cc1ccc(O)cc1)C(=O)N[C@@H](CCCCN)C(=O)N[C@@H](CC(N)=O)C(=O)N[C@H](C(=O)N[C@@H](CCCCN)C(=O)NCC(=O)N[C@@H](CCCCN)C(=O)N[C@@H](CS)C(=O)N[C@H](C(=O)N1CCC[C@H]1C(=O)N[C@@H](CC(=O)O)C(=O)N[C@@H](CC(N)=O)C(=O)N[C@@H](CCCCN)C(N)=O)C(C)C)C(C)C [RIPR_015] (Ac-EEGYKNVKGKCVPDNK-NH2) | > 100 |  | > 100 | 9.28 | 32 | > 100 | 1.81
